Measurements as given in paper PMC10287566, “Signaling-specific inhibition of the CB1 receptor for cannabis use disorder: phase 1 and phase 2a randomized trials” (Nature Medicine, 2023).
“And” between values parts separate entries of the source, which are not always exact repeats. Identical values can stand only once.

What was measured:
Test in all cases: Eurofins binding screen
Adenosine A3 = Adenosine A3 (Homo sapiens, UniProt P0DMS8)
Adrenergic alpha1 = details: 10 µM
Adrenergic alpha2 = details: 10 µM
Adrenergic beta1 = Adrenergic beta1 (Homo sapiens, UniProt P08588)
Angiotensin-II AT1 = Angiotensin-II AT1 (Homo sapiens, UniProt P30556)
Bombesin BB = details: 10 µM
Bradykinin B2 = Bradykinin B2 (Homo sapiens, UniProt P30411)
Cannabinoid CB2 = Cannabinoid CB2 (Homo sapiens, UniProt P34972)
Chemokines CCR1 = Chemokines CCR1 (Homo sapiens, UniProt P32246)
Dopamine D1 = Dopamine D1 (Homo sapiens, UniProt P21728)
Dopamine D3 = Dopamine D3 (Homo sapiens, UniProt P35462)
Dopamine D4.4 = Dopamine D4.4 (Homo sapiens, UniProt P21917)
Endothelin ETB = Endothelin ETB (Homo sapiens, UniProt P24530)
Galanin GAL1 = Galanin GAL1 (Homo sapiens, UniProt P47211)
Histamine H1 = Histamine H1 (Homo sapiens, UniProt P35367)
Melanocortin MC4 = Melanocortin MC4 (Homo sapiens, UniProt P32245)
Muscarinic M3 = Muscarinic M3 (Homo sapiens, UniProt P20309)
Neurokinin NK2 = Neurokinin NK2 (Homo sapiens, UniProt P21452)
Neuropeptide Y Y2 = Neuropeptide Y Y2 (Homo sapiens, UniProt P49146)
Opioid delta2 (DOP) = Opioid delta2 (DOP) (Homo sapiens, UniProt P41143)
Opioid mu (MOP) = Opioid mu (MOP) (Homo sapiens, UniProt P35372)
Neurotensin NTS1 (NT1) = Neurotensin NTS1 (NT1) (Homo sapiens, UniProt P30989)
Prostanoid EP2 = Prostanoid EP2 (Homo sapiens, UniProt P43116)
Prostanoid EP4 = Prostanoid EP4 (Homo sapiens, UniProt P35408)
Prostanoid IP (PGI2) = Prostanoid IP (PGI2) (Homo sapiens, UniProt P43119)
Purinergic P2Y = details: 10 µM
[1] = biological target: Vasoactive intestinal peptide VPAC1 (VIP1) (Homo sapiens, UniProt P32241)
PAC1 - PACAP = PAC1 - PACAP (Homo sapiens, UniProt P41586)
Vasopressin V1a = Vasopressin V1a (Homo sapiens, UniProt P37288)
Serotonin 5-HT1A = Serotonin 5-HT1A (Homo sapiens, UniProt P08908)
Serotonin 5-HT1B = details: 10 µM
Serotonin 5-HT2A = Serotonin 5-HT2A (Homo sapiens, UniProt P28223)
Serotonin 5-HT2B = Serotonin 5-HT2B (Homo sapiens, UniProt P41595)
Serotonin 5-HT6 = Serotonin 5-HT6 (Homo sapiens, UniProt P50406)
Calcium channels Ca2+-L = details: 10 µM
Potassium channels SKCa = details: 10 µM
[2] = biological target: Norepinephrine transporter NET (Homo sapiens, UniProt P23975)
[3] = biological target: Serotonin transporter SET (Homo sapiens, UniProt P31645)
[4] = biological target: PBR (peripheral benzodiazepine receptor) (Rattus norvegicus, UniProt P16257); details: for Percent inhibition of control specific binding: 10 µM
TNF-alpha = details: 10 µM
GABA = details: 10 µM
BZD (central) = details: 10 µM
Cl- channel = details: 10 µM
Glutamate PCP = details: 10 µM
Kinase PDGF = details: 10 µM
[5] = biological target: PR (progesterone receptor) (Homo sapiens, UniProt P06401)
[6] = read-out: Percent inhibition of control specific binding

Sequence of PBR (peripheral benzodiazepine receptor) (P16257 whole entry): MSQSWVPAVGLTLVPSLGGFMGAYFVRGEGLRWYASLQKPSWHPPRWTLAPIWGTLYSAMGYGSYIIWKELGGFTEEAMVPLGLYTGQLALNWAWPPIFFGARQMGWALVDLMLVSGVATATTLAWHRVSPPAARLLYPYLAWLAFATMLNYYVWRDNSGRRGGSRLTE
Sequence of PR (progesterone receptor) (P06401 whole entry): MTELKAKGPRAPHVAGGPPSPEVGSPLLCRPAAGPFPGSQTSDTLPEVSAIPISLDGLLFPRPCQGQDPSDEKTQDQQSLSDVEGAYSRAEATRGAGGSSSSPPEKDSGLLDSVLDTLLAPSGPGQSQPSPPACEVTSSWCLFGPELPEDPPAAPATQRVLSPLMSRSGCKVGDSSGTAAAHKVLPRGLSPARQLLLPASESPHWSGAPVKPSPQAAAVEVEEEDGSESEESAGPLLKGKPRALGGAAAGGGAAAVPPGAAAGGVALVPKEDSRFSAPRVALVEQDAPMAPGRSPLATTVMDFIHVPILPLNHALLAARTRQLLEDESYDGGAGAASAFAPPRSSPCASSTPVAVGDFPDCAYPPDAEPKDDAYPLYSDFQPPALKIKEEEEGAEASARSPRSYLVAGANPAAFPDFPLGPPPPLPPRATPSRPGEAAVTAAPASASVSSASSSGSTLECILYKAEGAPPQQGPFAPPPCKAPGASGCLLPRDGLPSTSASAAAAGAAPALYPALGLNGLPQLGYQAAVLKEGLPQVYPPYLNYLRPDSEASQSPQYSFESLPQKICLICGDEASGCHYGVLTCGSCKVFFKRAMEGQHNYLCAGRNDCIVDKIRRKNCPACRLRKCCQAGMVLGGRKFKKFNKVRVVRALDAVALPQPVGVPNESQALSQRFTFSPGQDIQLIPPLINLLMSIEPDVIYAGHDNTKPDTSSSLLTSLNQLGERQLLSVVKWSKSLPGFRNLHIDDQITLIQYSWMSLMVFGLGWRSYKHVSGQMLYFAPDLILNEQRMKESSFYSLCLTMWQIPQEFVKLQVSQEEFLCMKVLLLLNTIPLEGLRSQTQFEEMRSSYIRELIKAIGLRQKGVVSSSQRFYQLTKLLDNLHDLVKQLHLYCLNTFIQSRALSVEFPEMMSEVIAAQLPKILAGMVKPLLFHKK
Sequence of Vasopressin V1a (P37288 whole entry): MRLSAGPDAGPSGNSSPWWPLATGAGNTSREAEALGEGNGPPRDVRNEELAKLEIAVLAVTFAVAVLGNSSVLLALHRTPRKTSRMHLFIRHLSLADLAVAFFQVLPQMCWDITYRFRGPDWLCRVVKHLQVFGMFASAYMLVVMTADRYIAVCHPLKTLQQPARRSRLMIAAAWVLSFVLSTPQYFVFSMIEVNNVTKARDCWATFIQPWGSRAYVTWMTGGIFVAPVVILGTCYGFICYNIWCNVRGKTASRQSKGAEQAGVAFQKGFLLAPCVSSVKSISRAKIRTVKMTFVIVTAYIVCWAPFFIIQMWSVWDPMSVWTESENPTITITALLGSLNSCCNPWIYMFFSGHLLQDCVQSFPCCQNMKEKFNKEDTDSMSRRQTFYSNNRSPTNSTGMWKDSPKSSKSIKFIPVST
Sequence of Opioid mu (MOP) (P35372 whole entry): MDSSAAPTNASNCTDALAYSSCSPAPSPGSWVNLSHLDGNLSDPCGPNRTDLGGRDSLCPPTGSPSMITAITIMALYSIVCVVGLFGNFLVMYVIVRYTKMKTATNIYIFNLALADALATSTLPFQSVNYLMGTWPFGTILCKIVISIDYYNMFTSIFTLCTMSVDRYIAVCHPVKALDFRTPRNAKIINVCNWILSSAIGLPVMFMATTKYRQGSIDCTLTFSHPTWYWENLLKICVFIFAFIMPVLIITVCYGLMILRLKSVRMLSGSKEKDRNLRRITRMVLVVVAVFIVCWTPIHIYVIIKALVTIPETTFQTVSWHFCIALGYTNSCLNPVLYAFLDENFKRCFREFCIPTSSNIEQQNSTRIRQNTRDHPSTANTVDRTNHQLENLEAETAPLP
Sequence of Cannabinoid CB2 (P34972 whole entry): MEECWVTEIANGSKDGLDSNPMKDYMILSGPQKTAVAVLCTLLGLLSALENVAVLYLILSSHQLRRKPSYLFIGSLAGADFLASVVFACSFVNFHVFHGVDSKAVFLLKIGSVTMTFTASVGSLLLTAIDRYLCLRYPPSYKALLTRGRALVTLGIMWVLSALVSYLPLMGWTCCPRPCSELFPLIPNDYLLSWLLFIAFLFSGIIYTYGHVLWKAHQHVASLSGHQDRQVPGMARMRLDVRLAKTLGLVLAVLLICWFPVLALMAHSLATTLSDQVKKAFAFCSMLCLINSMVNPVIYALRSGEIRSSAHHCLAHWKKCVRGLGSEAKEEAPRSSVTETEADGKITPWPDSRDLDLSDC
Sequence of Angiotensin-II AT1 (P30556 whole entry): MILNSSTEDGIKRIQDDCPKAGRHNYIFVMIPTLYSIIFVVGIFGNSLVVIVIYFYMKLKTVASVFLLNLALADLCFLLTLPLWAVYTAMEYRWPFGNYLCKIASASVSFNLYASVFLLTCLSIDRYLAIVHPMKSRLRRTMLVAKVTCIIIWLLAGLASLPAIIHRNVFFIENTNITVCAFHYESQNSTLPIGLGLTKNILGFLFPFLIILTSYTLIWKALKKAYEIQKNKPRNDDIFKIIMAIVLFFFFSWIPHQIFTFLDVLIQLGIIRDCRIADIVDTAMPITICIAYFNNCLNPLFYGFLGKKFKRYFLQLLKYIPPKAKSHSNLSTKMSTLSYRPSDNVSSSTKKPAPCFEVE
Sequence of Galanin GAL1 (P47211 whole entry): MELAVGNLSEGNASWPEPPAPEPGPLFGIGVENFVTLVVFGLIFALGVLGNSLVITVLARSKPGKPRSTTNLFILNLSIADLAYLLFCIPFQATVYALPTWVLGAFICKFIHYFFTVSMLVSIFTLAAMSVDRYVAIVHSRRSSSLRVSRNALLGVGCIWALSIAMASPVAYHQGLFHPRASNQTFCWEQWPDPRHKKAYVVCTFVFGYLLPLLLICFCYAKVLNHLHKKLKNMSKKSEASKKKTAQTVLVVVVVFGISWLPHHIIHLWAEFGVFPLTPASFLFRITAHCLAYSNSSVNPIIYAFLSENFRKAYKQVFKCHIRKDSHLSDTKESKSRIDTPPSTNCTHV
Sequence of Bradykinin B2 (P30411 whole entry): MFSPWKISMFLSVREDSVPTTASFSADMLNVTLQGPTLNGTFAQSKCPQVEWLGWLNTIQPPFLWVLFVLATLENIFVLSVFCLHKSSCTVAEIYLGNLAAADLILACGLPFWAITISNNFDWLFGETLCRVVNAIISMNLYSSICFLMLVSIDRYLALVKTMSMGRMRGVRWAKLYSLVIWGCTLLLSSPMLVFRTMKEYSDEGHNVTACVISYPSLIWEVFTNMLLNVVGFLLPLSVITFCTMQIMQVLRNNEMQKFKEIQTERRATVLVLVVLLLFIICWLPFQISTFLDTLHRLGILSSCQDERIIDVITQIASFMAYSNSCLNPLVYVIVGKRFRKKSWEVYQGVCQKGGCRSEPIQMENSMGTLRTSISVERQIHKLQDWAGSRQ
Sequence of Chemokines CCR1 (P32246 whole entry): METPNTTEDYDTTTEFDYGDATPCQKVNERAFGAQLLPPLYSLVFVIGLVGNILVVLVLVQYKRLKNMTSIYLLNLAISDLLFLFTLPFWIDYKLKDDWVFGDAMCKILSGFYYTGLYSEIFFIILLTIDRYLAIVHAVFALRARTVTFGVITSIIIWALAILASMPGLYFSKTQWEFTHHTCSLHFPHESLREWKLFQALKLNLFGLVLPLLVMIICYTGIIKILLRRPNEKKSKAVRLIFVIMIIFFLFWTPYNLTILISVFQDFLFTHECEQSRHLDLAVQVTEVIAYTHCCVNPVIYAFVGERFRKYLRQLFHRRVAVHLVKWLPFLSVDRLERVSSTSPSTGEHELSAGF
Sequence of Adrenergic beta1 (P08588 whole entry): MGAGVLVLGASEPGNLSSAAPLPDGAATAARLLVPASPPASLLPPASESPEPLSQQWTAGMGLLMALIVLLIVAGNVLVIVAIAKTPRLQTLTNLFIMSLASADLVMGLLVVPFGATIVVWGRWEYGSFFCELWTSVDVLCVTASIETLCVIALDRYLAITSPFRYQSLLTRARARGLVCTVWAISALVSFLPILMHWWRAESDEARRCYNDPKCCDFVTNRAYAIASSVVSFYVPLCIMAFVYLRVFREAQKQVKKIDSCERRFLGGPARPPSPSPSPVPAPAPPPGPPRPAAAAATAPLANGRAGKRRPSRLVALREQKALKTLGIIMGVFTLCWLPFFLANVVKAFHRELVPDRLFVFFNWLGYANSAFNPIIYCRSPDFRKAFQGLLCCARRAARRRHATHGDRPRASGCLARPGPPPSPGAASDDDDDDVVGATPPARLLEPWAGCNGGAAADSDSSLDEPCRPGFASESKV
Sequence of Muscarinic M3 (P20309 whole entry): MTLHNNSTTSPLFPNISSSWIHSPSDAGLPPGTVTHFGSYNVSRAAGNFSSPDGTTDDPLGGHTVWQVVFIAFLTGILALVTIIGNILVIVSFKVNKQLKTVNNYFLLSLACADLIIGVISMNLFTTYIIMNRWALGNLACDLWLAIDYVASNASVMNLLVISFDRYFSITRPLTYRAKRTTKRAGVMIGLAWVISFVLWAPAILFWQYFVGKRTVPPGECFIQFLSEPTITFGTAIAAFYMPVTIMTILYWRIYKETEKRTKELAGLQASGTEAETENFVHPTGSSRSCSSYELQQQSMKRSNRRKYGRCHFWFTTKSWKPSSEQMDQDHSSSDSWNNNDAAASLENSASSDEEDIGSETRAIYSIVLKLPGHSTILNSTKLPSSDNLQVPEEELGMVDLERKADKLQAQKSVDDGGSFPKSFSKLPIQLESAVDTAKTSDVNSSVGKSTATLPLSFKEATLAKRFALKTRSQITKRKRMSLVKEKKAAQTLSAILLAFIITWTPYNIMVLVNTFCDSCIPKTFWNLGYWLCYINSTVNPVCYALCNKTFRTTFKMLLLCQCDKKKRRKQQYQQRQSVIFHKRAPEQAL

## COc1ccc(CO[C@H]2CC[C@@]3(C)C(=CC[C@H]4[C@@H]5CC[C@H](C(C)=O)[C@@]5(C)CC[C@@H]43)C2)cc1 [AEF0117, 3β-(4-methoxybenzyloxy)pregn-5-en-20-one]
Adenosine A3; [6]
  inhibition at 10 µM: -20%
Adrenergic alpha1
  Percent inhibition of control specific binding: -5%
Adrenergic alpha2
  Percent inhibition of control specific binding: 7%
Adrenergic beta1; [6]
  inhibition at 10 µM: 3%
Angiotensin-II AT1; [6]
  inhibition at 10 µM: 7%
Bombesin BB
  Percent inhibition of control specific binding: 12%
Bradykinin B2; [6]
  inhibition at 10 µM: -1%
Cannabinoid CB2; [6]
  inhibition at 10 µM: -2%
Chemokines CCR1; [6]
  inhibition at 10 µM: 5%
Dopamine D1; [6]
  inhibition at 10 µM: -12%
Dopamine D3; [6]
  inhibition at 10 µM: 2%
Dopamine D4.4; [6]
  inhibition at 10 µM: -7%
Endothelin ETB; [6]
  inhibition at 10 µM: 2%
Galanin GAL1; [6]
  inhibition at 10 µM: -4%
Histamine H1; [6]
  inhibition at 10 µM: 4%
Melanocortin MC4; [6]
  inhibition at 10 µM: -8%
Muscarinic M3; [6]
  inhibition at 10 µM: -18%
Neurokinin NK2; [6]
  inhibition at 10 µM: -28%
Neuropeptide Y Y2; [6]
  inhibition at 10 µM: -22%
Opioid delta2 (DOP); [6]
  inhibition at 10 µM: -4%
Opioid mu (MOP); [6]
  inhibition at 10 µM: -10%
Neurotensin NTS1 (NT1); [6]
  inhibition at 10 µM: -14%
Prostanoid EP2; [6]
  inhibition at 10 µM: 27%
Prostanoid EP4; [6]
  inhibition at 10 µM: 10%
Prostanoid IP (PGI2); [6]
  inhibition at 10 µM: -4%
Purinergic P2Y
  Percent inhibition of control specific binding: 16%
[1]; [6]
  inhibition at 10 µM: -4%
PAC1 - PACAP; [6]
  inhibition at 10 µM: 4%
Vasopressin V1a; [6]
  inhibition at 10 µM: 0%
Serotonin 5-HT1A; [6]
  inhibition at 10 µM: -11%
Serotonin 5-HT1B
  Percent inhibition of control specific binding: -15%
Serotonin 5-HT2A; [6]
  inhibition at 10 µM: 2%
Serotonin 5-HT2B; [6]
  inhibition at 10 µM: -15%
Serotonin 5-HT6; [6]
  inhibition at 10 µM: -2%
Calcium channels Ca2+-L
  Percent inhibition of control specific binding: -1%
Potassium channels SKCa
  Percent inhibition of control specific binding: 12%
[2]; [6]
  inhibition at 10 µM: -5%
[3]; [6]
  inhibition at 10 µM: 8%
[4]; [6]
  inhibition at 10 µM: 4%
TNF-alpha
  Percent inhibition of control specific binding: -5%
GABA
  Percent inhibition of control specific binding: 9%
BZD (central)
  Percent inhibition of control specific binding: 1%
Cl- channel
  Percent inhibition of control specific binding: -4%
Glutamate PCP
  Percent inhibition of control specific binding: 2%
Kinase PDGF
  Percent inhibition of control specific binding: -8%
[5]; [6]
  inhibition at 10 µM: 29%

## CC(=O)[C@H]1CC[C@H]2[C@@H]3CC=C4C[C@@H](O)CC[C@]4(C)[C@H]3CC[C@]12C [pregnenolone, reference compound]
Adenosine A3; 10 µM
  Percent inhibition of control specific binding: 11%
Adrenergic alpha1
  Percent inhibition of control specific binding: 1%
Adrenergic alpha2
  Percent inhibition of control specific binding: -2%
Adrenergic beta1; 10 µM
  Percent inhibition of control specific binding: 4%
Angiotensin-II AT1; 10 µM
  Percent inhibition of control specific binding: -28%
Bombesin BB
  Percent inhibition of control specific binding: -18%
Bradykinin B2; 10 µM
  Percent inhibition of control specific binding: -9%
Cannabinoid CB2; 10 µM
  Percent inhibition of control specific binding: -19%
Chemokines CCR1; 10 µM
  Percent inhibition of control specific binding: -10%
Dopamine D1; 10 µM
  Percent inhibition of control specific binding: -8%
Dopamine D3; 10 µM
  Percent inhibition of control specific binding: 11%
Dopamine D4.4; 10 µM
  Percent inhibition of control specific binding: 20%
Endothelin ETB; 10 µM
  Percent inhibition of control specific binding: 4%
Galanin GAL1; 10 µM
  Percent inhibition of control specific binding: -16%
Histamine H1; 10 µM
  Percent inhibition of control specific binding: 0%
Melanocortin MC4; 10 µM
  Percent inhibition of control specific binding: -15%
Muscarinic M3; 10 µM
  Percent inhibition of control specific binding: 2%
Neurokinin NK2; 10 µM
  Percent inhibition of control specific binding: -1%
Neuropeptide Y Y2; 10 µM
  Percent inhibition of control specific binding: -9%
Opioid delta2 (DOP); 10 µM
  Percent inhibition of control specific binding: 9%
Opioid mu (MOP); 10 µM
  Percent inhibition of control specific binding: -5%
Neurotensin NTS1 (NT1); 10 µM
  Percent inhibition of control specific binding: -19%
Prostanoid EP2; 10 µM
  Percent inhibition of control specific binding: 24%
Prostanoid EP4; 10 µM
  Percent inhibition of control specific binding: 21%
Prostanoid IP (PGI2); 10 µM
  Percent inhibition of control specific binding: -12%
Purinergic P2Y
  Percent inhibition of control specific binding: -3%
[1]; 10 µM
  Percent inhibition of control specific binding: -10%
PAC1 - PACAP; 10 µM
  Percent inhibition of control specific binding: -25%
Vasopressin V1a; 10 µM
  Percent inhibition of control specific binding: 10%
Serotonin 5-HT1A; 10 µM
  Percent inhibition of control specific binding: 12%
Serotonin 5-HT1B
  Percent inhibition of control specific binding: -28%
Serotonin 5-HT2A; 10 µM
  Percent inhibition of control specific binding: -1%
Serotonin 5-HT2B; 10 µM
  Percent inhibition of control specific binding: -38%
Serotonin 5-HT6; 10 µM
  Percent inhibition of control specific binding: 5%
Calcium channels Ca2+-L
  Percent inhibition of control specific binding: -19%
Potassium channels SKCa
  Percent inhibition of control specific binding: -8%
[2]; 10 µM
  Percent inhibition of control specific binding: -12%
[3]; 10 µM
  Percent inhibition of control specific binding: 1%
[4]
  Percent inhibition of control specific binding: > 40%
[4]; listed as Preg
  Percent inhibition of control specific binding: 42%
TNF-alpha
  Percent inhibition of control specific binding: 4%
GABA
  Percent inhibition of control specific binding: 10%
BZD (central)
  Percent inhibition of control specific binding: -43%
Cl- channel
  Percent inhibition of control specific binding: 29%
Glutamate PCP
  Percent inhibition of control specific binding: 5%
Kinase PDGF
  Percent inhibition of control specific binding: -15%
[5]; 10 µM
  Percent inhibition of control specific binding: > 80% and 87%
